Reference: patent US20040186022A1, “Enhanced herbicides” (priority 1999, published 2004)

Experiments:
plants [1] = experiment: Synergistic relationship between succinic acid and caprylic/capric acids C/C, herbicidal activity; format: in vivo; settings: for Injury ratings, Total: 40 G/a + 60 G/a; for Injury ratings based on 2 independent evaluations, 40 G/a: 40 G/acre: Canadian thistle, velvet leaf; for Injury ratings based on 2 independent evaluations, 40 G/a / Injury ratings based on 2 independent evaluations, 60 G/a: Johnson grass and giant foxtail, each pot rated 1 to 5; for Injury ratings based on 2 independent evaluations, 60 G/a: 60 G/acre: velvetleaf; for Average rating per pot: rating 1 to 5, 5 = complete desiccation of all plants
From the text: (§1) The herbicides were applied in the “spray to drip” amount or at a calibrated 20-60 gallons/acre. “Spray to drip” is an uncalibrated application of fluid to foliage, where sufficient spray volume is used to sufficiently saturate the foliage surface until excess fluid begins to drip from the foliage.

[2] = system: black beans (dry bean variety T39); experiment: Synergistic interactions of succinic acid and di-ammonium succinate with other herbicidal compounds, dry beans (black); format: in vivo; settings: for Injury rating, average per plot: scale 1-5
From the text: as §1

[3] = system: navy dry beans (navy Vista); experiment: Synergistic interactions of succinic acid and di-ammonium succinate with herbicidal compounds, navy dry beans; format: in vivo, dry bean (navy); settings: for Injury rating, average per plot: scale 1-5
From the text: as §1

[4] = system: 40 G/a: crab grass, pigweed, chick weed and foxtail; 60 G/a: pigweed, Kentucky bluegrass, foxtail, crab grass and barnyard grass; spray to drip: Kentucky …; experiment: Herbicidal activities: synergy between succinic acid and pelargonic acid; format: in vivo; parameters: Total injury ratings, 60 G/a / Total injury ratings, Spray to drip / Total injury ratings, Total: scale not given here; settings: for Total injury ratings, Total / Total injury ratings, 40 G/a: 40 G/a; for Total injury ratings, Total: 60 G/a and spray to drip; for Total injury ratings, 40 G/a: 9 pots/treatment, rating 1-5 per pot, 1.125% Emsorb 6900; for Total injury ratings, 60 G/a: 10 pots/treatment; for Total injury ratings, Spray to drip: 7 pots/treatment
From the text: as §1

[5] = system: 60 G/a: lambsquarter, pigweed and velvetleaf; spray to drip: lambsquarter and foxtail; experiment: Herbicidal activity of caproic acid with succinic acid and sodium salicylate; format: in vivo; settings: for Total Injury ratings, Total score: 60 G/a plus spray to drip; for Total injury ratings, 60 G/a: 4 pots/treatment, lambsquarter, pigweed and velvetleaf, rating 1-5 per pot; for Total injury ratings, Spray to drip: 2 pots/treatment, lambsquarter and foxtail
From the text: as §1

plants [6] = experiment: Herbicidal enhancement of pelargonic by succinic acid and diammonium succinate; format: in vivo
From the text: as §1

[7] = system: 60 G/a: velvetleaf, black nightshade, redroot pigweed, foxtail and snapbeans; spray to drip: black nightshade, velvetleaf, foxtail and snapbeans; experiment: Efficacy of 1.5% succinic acid with oleic, caprylic or pelargonic acid in an emulsification system (Emsorb 6900); format: in vivo; parameters: Injury rating, total score for 2 evaluation, Spray to drip / Injury rating, total score for 2 evaluation, Total Rating: scale not given here
From the text: as §1

[8] = system: 60 G/a: black nightshade, redroot pigweed, foxtail, lambsquarter and snapbeans; spray to drip: redroot pigweed, velvetleaf, nutsedge and foxtail; experiment: Efficacy of 3% caprylic with succinic or ammonium succinate in an emulsification system (Emsorb 6900); format: in vivo
From the text: as §1

plants [9] = experiment: Herbicidal activity: comparison of caprylic, pelargonic and an equimolar mixture of caprylic and pelargonic acids; format: in vivo
From the text: The herbicides were applied in the “spray to drip” amount or at a calibrated 20-60 gallons/acre. “Spray to drip” is an uncalibrated application of fluid to foliage, where sufficient spray volume is used to sufficiently saturate the foliage surface until excess fluid begins to drip from the foliage. In general, about 5 to 200 gallons/acre, preferably 20-100 gallons/acre can be effective.

[10] = system: 40 G/a: crab grass, chickweed and common lambsquarter; 60 G/a: redtop, pigweed, foxtail; spray to drip: barnyard grass, foxtail, sudan grass and nutsedge; experiment: Herbicidal combinations of caprylic/capric (c/c) or pelargonic acid with equimolar succinic acid and ammonium succinate, on weed varieties; format: in vivo
[11] = system: 60 G/a: redroot pigweed, foxtail and velvetleaf; spray to drip: foxtail, dry beans and pigweed; experiment: Herbicidal activity: caprylic acid and succinic acid +/- ammonium sulfate; format: in vivo
From the text: as §1

Potato, variety Katahdin = experiment: Potato field trial: 2 applications of selected herbicides, including Desiccate II; format: in vivo; settings: scale 1-5
From the text: as §1

[12] = Measurement of pH values for test desiccants (Example 56); format: physicochemical
soybeans [13] = experiment: Synergistic relationships: succinic acid + caprylic acid, succinic acid + sodium salicylate, testing soybeans; format: in vivo; settings: 3 days after a single foliar application, soybean Stine 2250; for Overall Effect: 5 equals profound desiccation
From the text: as §1

soybeans [14] = experiment: Synergy comparisons of various organic acids with caprylic acid, testing soybeans; format: in vivo; settings: 3 days after a single foliar application, average of 2 sites, soybean Stine 2250
From the text: as §1

[15] = Measurement of pH values for test desiccants (Example 55); format: physicochemical
[16] = system: chickweed, redtop, velvetleaf, crabgrass and green foxtail; experiment: Enhancement of herbicidal activity of caprylic/capric acids (c/c) using selected compounds at equimolar amounts; format: in vivo
From the text: as §1

[17] = Day 2, one application at 40 G/acre, treatments 1-4, 9-11 in Emsorb 6900/mineral oil/Hasten, 5-8, 12-14 in 0.3% Sylgard 309
[18] = Day 1, one application at 40 G/acre, treatments 1-4, 9-11 in Emsorb 6900/mineral oil/Hasten, 5-8, 12-14 in 0.3% Sylgard 309
[19] = rating 1 to 5, 5 = complete desiccation of all plants
[20] = 60 G/a, rating 1-5 per pot, 1% Emsorb, 0.3% Hasten

## O=C([O-])c1ccccc1O.[Na+] [0.5% sodium salicylate]
Plants [1]
  Injury ratings, Total: 1.5
  Injury ratings based on 2 independent evaluations, 40 G/a: 1
  Injury ratings based on 2 independent evaluations, 60 G/a: 0.5
  Average rating per pot: 0.04

## O=C(O)CCC(=O)O [0.5% succinic acid, succinic acid]
[2]; [17]
  Injury rating, average per plot: 0
[2]
  % desiccation (Day 12), foliage: 0%
  % desiccation (Day 12), pods: 0%
  % desiccation (Day 12), vines: 0%
[2]; Day 12
  Injury rating, average per plot: 0
Plants [1]
  Injury ratings, Total: 0
  Injury ratings based on 2 independent evaluations, 40 G/a: 0
  Injury ratings based on 2 independent evaluations, 60 G/a: 0
  Average rating per pot: 0
[3]; [18]
  Injury rating, average per plot: 0
[3]; Day 2
  Injury rating, average per plot: 0
[3]; Day 3
  Injury rating, average per plot: 0
[3]; Day 4
  Injury rating, average per plot: 0
[3]
  % desiccation (Day 12), foliage: 0%
  % desiccation (Day 12), pods: 0%
  % desiccation (Day 12), vines: 0%
[3]; Day 12
  Injury rating, average per plot: 0
[4]
  Total injury ratings, Total: 0
  Total injury ratings, 40 G/a: 0
  Total injury ratings, 60 G/a: 0
  Total injury ratings, Spray to drip: 0

## CCCCCC(=O)O [2% caproic, caproic acid]
[5]
  Total Injury ratings, Total score: 18.5
  Total injury ratings, 60 G/a: 11.2
  Total injury ratings, Spray to drip: 7.3

## CCCCCCCCC(=O)O [2.5% pelargonic]
Plants [6]; 40 G/a: lambsquarter, velvetleaf and green foxtail, each pot rated 1 to 5
  Injury ratings based on 2 independent evaluations, 40 G/a: 79.2
Plants [6]; 60 G/a: pigweed, chickweed, crabgrass, green foxtail, velvetleaf, lambsquarter and wheat, each pot rated 1 to 5
  Injury ratings based on 2 independent evaluations, 60 G/a: 102.2
Plants [6]; Spray to drip: nutsedge, velvetleaf, green foxtail, giant foxtail and barnyard grass, each pot rated 1 to 5
  Injury ratings based on 2 independent evaluations, Spray to drip: 53.8
Plants [6]; [19]
  Average rating per pot: 4.36

## CCCCCC(=O)O [3% caproic, caproic acid]
[5]
  Total Injury ratings, Total score: 20.9
  Total injury ratings, 60 G/a: 13.9
  Total injury ratings, Spray to drip: 7

## CCCCCCCC(=O)O [3% caprylic, caprylic acid]
[2]; [17]
  Injury rating, average per plot: 4
[2]
  % desiccation (Day 12), foliage: 80%
  % desiccation (Day 12), pods: 95%
  % desiccation (Day 12), vines: 92%
[2]; Day 12
  Injury rating, average per plot: 4.73
[7]; 60 G/a plus spray to drip
  Injury rating, total score for 2 evaluation, Total Rating: 123.5
[7]; [20]
  Injury rating, total score for 2 evaluation, 60 G/a: 88.1
[7]; scale 1-5
  Average rating per pot: 4.41
[7]; spray to drip
  Injury rating, total score for 2 evaluation, Spray to drip: 35.4
[3]; [18]
  Injury rating, average per plot: 3.5
[3]; Day 2
  Injury rating, average per plot: 3.93
[3]; Day 3
  Injury rating, average per plot: 3.93
[3]; Day 4
  Injury rating, average per plot: 4
[3]
  % desiccation (Day 12), foliage: 50%
  % desiccation (Day 12), pods: 80%
  % desiccation (Day 12), vines: 10%
[3]; Day 12
  Injury rating, average per plot: 4.2
[8]; 60 G/a plus spray to drip
  Injury rating, total score for 2 evaluations, Total Rating: 178.4
[8]; [20]
  Injury rating, total score for 2 evaluations, 60 G/a: 142
[8]; scale 1-5
  Average rating per pot: 4.05
[8]; spray to drip
  Injury rating, total score for 2 evaluations, Spray to drip: 36.6
Plants [9]; 40 G/acre: chickweed, redroot pigweed, lambsquarter and green foxtail, each pot rated 1 to 5
  Injury ratings based on 2 independent evaluations, 40 G/acre: 40.8
Plants [9]; 60 G/acre: chickweed, redroot pigweed, lambsquarter, green foxtail, crabgrass and wheat, each pot rated 1 to 5
  Injury ratings based on 2 independent evaluations, 60 G/acre: 51.6
Plants [9]; [19]
  Average rating per pot: 4.16

## CCCCCCCCC(=O)O [3% pelargonic acid, pelargonic acid]
[10]; 40 G/a, 60 G/a and spray to drip
  Total injury ratings, Total: 185.8
[10]; 40 G/a, 10 pots/treatment, two evaluations, rating 1-5 per pot, 1% Emsorb 6900
  Total injury ratings, 40 G/a: 87.7
[10]; 60 G/a, 7 pots/treatment, two evaluations
  Total injury ratings, 60 G/a: 60.8
[10]; scale 1-5
  Average rating/pot: 4.42
[10]; spray to drip, 8 pots/treatment, one evaluation
  Total injury ratings, Spray to drip: 37.3

## CCCCCCCC(=O)O [4% caprylic acid, caprylic acid]
[11]; 60 G/a plus spray to drip
  Total Injury ratings, combined, for two separate evaluations, Total Rating: 116.8
[11]; 60 G/a, 7 pots/treatment, rating 1-5 per pot, 1% Emsorb 6900
  Total Injury ratings, combined, for two separate evaluations, 60 G/a: 60.7
[11]; scale 1-5
  Average rating/pot: 4.49
[11]; spray to drip, 6 pots/treatment
  Total Injury ratings, combined, for two separate evaluations, Spray to drip: 56.1

## CCCCCCCCC(=O)O [4% pelargonic acid, pelargonic acid]
[4]
  Total injury ratings, Total: 153.4
  Total injury ratings, 40 G/a: 41.6
  Total injury ratings, 60 G/a: 45.6
  Total injury ratings, Spray to drip: 66.2

## CCCCCCCCC(=O)O [5% pelargonic, pelargonic acid]
Potato, variety Katahdin; Day 1, 40-42 G/acre, 2nd treatment 2 days after 1st
  Injury rating, average per plot: 4.07
Potato, variety Katahdin; Day 2
  Injury rating, average per plot: 4
Potato, variety Katahdin; Day 3
  Injury rating, average per plot: 4.13
Potato, variety Katahdin; Day 5
  Injury rating, average per plot: 4.43

## NCCC(=O)O [Beta-Alanine (0.5%)]
[12]
  pH Value: 6.65

## CCCCCCCC(=O)O [Caprylic Acid (1%)]
Soybeans [13]
  Foliage Affected (%): 25-30%
  Overall Effect: 2.5

## O=C(O)C(O)C(O)C(=O)O [L-Tartaric Acid (0.5%)]
[12]
  pH Value: 1.72
Soybeans [14]
  Foliage Affected (%): 0%
Soybeans [14]; 5 equals profound desiccation
  Overall Effect: 0
[15]
  pH Value: 1.52

## O=C([O-])c1ccccc1O.[Na+] [Sodium Salicylate (0.5%)]
[12]
  pH Value: 4.48

## N.N.O=C(O)CCC(=O)O [ammonium succinate]
[10]; footnote
  Rating of additive tested alone: Since succinic acid (or ammonium succinate) tested alone had a rating of zero, pelargonic acid (or c/c) + succinic acid (or ammonium succinate) were synergistic. The exception was: 3% pelargonic acid + 1.26% ammonium succinate

## O=C(O)CCC(=O)O [succinic acid (1%), succinic acid]
[16]; Day 2 after treatment, 40 G/acre, 8 pots, rating 1-5 per pot, […] Emsorb 6900, […] mineral oil
  Relative injury ratings, Day #2: 0
[16]; Day 4 after treatment
  Relative injury ratings, Day #4: 0
[16]; Day 5 after treatment
  Relative injury ratings, Day #5: 0
[16]; scale 1-5
  Average rating per pot: 0
Soybeans [13]
  Foliage Affected (%): 0%
  Overall Effect: 0
